pEC50, pIC50: −log10 of the molar value. Values after ≈ are worked out from the molar mass of the structure shown.
Key:
[1] = (§1) Cmax in cannulated Sprague-Dawley rat assessed as (S)-(5S,10S,11S,14S)-11-Benzyl-5,14-di-tert-butyl-3,6,13,16-tetraoxo-8-(4-(pyridin-2-yl)benzyl)-2,17-dioxa-4,7,8,12,15-pentaazaoctadecan-10-yl 2-amino-3-methylbutanoate level at 3 mg/kg equiv of atazanavir administered orally by UPLC/MS/MS analysis; format: ADME, organism-based; parameters: dose 3 mg/kg, route oral; details: in vivo, po
[2] = Tmax in cannulated Sprague-Dawley rat assessed as (S)-(5S,10S,11S,14S)-11-Benzyl-5,14-di-tert-butyl-3,6,13,16-tetraoxo-8-(4-(pyridin-2-yl)benzyl)-2,17-dioxa-4,7,8,12,15-pentaazaoctadecan-10-yl 2-amino-3-methylbutanoate level at 3 mg/kg equiv of atazanavir administered orally by UPLC/MS/MS analysis; format: ADME, organism-based; details: in vivo, po
[3] = as §1, with “AUClast” for “Cmax”; format: ADME, organism-based; parameters: dose 3 mg/kg, time 0 - last, route oral; details: in vivo, po
Protease = Protease (Human immunodeficiency virus 1, UniProt Q9YQ12)
Description: Inhibition of HIV1 protease activity

[4] = rat, in vivo, po, 3 mg/kg
[5] = rat, in vivo, po, 3 mg/kg; remark: listed apart in the source
[6] = rat, in vivo, po, 3 mg/kg; remark: listed apart in the source
Description: AUClast in cannulated Sprague-Dawley rat assessed as atazanavir level at 3 mg/kg equiv of atazanavir administered orally by UPLC/MS/MS analysis

[7] = tested on: Human immunodeficiency virus 1
Description: Antiviral activity against HIV1 NL4-3 infected in human MT2 cells assessed as reduction in viral yield measured after 4 days by EnduRen live cell substrate based luciferase reporter gene assay

physchem [8] = details: 30% CH3CN/HCl buffer, pH 1
Description: Half life in pH 1 30%CH3CN/HCl buffer at 50 mM by RP-UPLC analysis

physchem [9] = details: 30% CH3CN/acetate buffer, pH 4
Description: Half life in pH 4 30%CH3CN/acetate buffer at 50 mM by RP-UPLC analysis

physchem [10] = details: 30% CH3CN/phosphate buffer, pH 6.5
Description: Half life in pH 6.5 30%CH3CN/phosphate buffer at 50 mM by RP-UPLC analysis

physchem [11] = details: HCl buffer, pH 1
Description: Aqueous solubility of the compound in pH 1 HCl buffer by RP-UPLC analysis

physchem [12] = details: acetate buffer, pH 4
Description: Aqueous solubility of the compound in pH 4 acetate buffer by RP-UPLC analysis

physchem [13] = details: phosphate buffer, pH 6.5
Description: Aqueous solubility of the compound in pH 6.5 phosphate buffer by RP-UPLC analysis

[14] = Stability in pH 6.5 30%CH3CN/phosphate buffer assessed as parent compound remaining at 50 mM measured after 30 mins by RP-UPLC analysis; format: physicochemical; details: read-out: Stability
[15] = Cmax in cannulated Sprague-Dawley rat assessed as atazanavir level at 30 mg/kg equiv of atazanavir administered orally by UPLC/MS/MS analysis; format: ADME, organism-based; parameters: dose 30 mg/kg, route oral; details: in vivo, po
[16] = Stability in pH 6.5 30%CH3CN/phosphate buffer assessed as parent compound remaining at 50 mM measured after 2 mins by RP-UPLC analysis; format: physicochemical; details: read-out: Stability
[17] = Tmax in cannulated Sprague-Dawley rat assessed as atazanavir level at 30 mg/kg equiv of atazanavir administered orally by UPLC/MS/MS analysis; format: ADME, organism-based; details: in vivo, po
[18] = AUClast in cannulated Sprague-Dawley rat assessed as atazanavir level at 30 mg/kg equiv of atazanavir administered orally by UPLC/MS/MS analysis; format: ADME, organism-based; parameters: dose 30 mg/kg, route oral, time 0 - last; details: in vivo, po
[19] = Cmin in cannulated Sprague-Dawley rat assessed as atazanavir level at 3 mg/kg equiv of atazanavir administered orally measured after 24 hrs by UPLC/MS/MS analysis; format: ADME, organism-based; details: in vivo, po, read-out: Cmin
[20] = Cmin in cannulated Sprague-Dawley rat assessed as atazanavir level at 30 mg/kg equiv of atazanavir administered orally measured after 24 hrs by UPLC/MS/MS analysis; format: ADME, organism-based; details: in vivo, po, read-out: Cmin
[21] = Cmin in cannulated Sprague-Dawley rat at 3 mg/kg equiv of atazanavir administered orally measured after 24 hrs by UPLC/MS/MS analysis; format: ADME, organism-based; details: in vivo, po, BLD = below limit of detection
[22] = Cmin in cannulated Sprague-Dawley rat at 30 mg/kg equiv of atazanavir administered orally measured after 24 hrs by UPLC/MS/MS analysis; format: ADME, organism-based; details: in vivo, po, BLD = below limit of detection
[23] = Prodrug conversion in cannulated Sprague-Dawley rat plasma assessed as atazanavir formation at 3 mg/kg equiv of atazanavir administered orally by UPLC/MS/MS analysis; format: ADME, organism-based; details: in vivo, po
[24] = Prodrug conversion assessed as recombinant rat intestinal alkaline phosphatase-mediated compound dephosphorylation by measuring half life by UPLC-MS/MS analysis; format: ADME
[25] = Prodrug conversion assessed as recombinant human intestinal alkaline phosphatase-mediated compound dephosphorylation by measuring half life by UPLC-MS/MS analysis; format: ADME; details: isolated protein
[26] = Half life in pH 2 30%CH3CN solution at 50 mM by RP-UPLC analysis; format: physicochemical

Chain of Protease (Q9YQ12 whole entry): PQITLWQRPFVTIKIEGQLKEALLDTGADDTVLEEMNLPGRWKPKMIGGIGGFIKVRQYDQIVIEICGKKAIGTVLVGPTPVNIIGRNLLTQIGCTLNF

Row | Cmax [4] [nM] | Tmax [5] [h] | AUClast [6] [µM·h] | half-life at 50000 µM (physchem [8]) [h] | half-life at 50000 µM (physchem [9]) [h] | half-life at 50000 µM (physchem [10]) [h] | solubility (physchem [11]) [µg/mL] | solubility (physchem [12]) [µg/mL] | solubility (physchem [13]) [µg/mL] | SMILES | also measured
1 | 4 | 5 | 0.02 | > 500 | > 500 | > 500 | > 2150 | > 1200 | 780 (≈ 864 µM) | COC(=O)N[C@H](C(=O)N[C@@H](Cc1ccccc1)[C@H](CN(Cc1ccc(-c2ccccn2)cc1)NC(=O)[C@@H](NC(=O)OC)C(C)(C)C)OC(=O)[C@@H](NC(=O)[C@@H](N)C(C)C)C(C)C)C(C)(C)C | Cmax [1]: 30 nM; Tmax [2]: 3 h; AUClast [3]: 0.085 µM·h; pIC50 (Protease): 5.94 to 8.40; pEC50 [7]: 5.90 to 9.05
2 | 794 | 1 | 1.533 | > 500 | 9.03 | 0.08 | 1170 |  |  | COC(=O)N[C@H](C(=O)N[C@@H](Cc1ccccc1)[C@H](CN(Cc1ccc(-c2ccccn2)cc1)NC(=O)[C@@H](NC(=O)OC)C(C)(C)C)OC(=O)CN(C)C(=O)[C@@H](N)Cc1ccccc1)C(C)(C)C.Cl.Cl | remaining at 0.5 h, 50000 µM [14]: 2%; Cmax [15]: 8760 nM; remaining at 2 min, 50000 µM [16]: 86.1%; Tmax [17]: 1 h; AUClast [18]: 16.58 µM·h; concentration [19]: 1.9 nM; concentration [20]: 30.4 nM; Cmin [21]: Bld; Cmin [22]: Bld
3 | 257 | 0.25 | 0.277 | 0.2 | > 500 | > 500 |  | > 930 | > 1060 | COC(=O)N[C@H](C(=O)N[C@@H](Cc1ccccc1)[C@H](CN(Cc1ccc(-c2ccccn2)cc1)NC(=O)[C@@H](NC(=O)OC)C(C)(C)C)OCOP(=O)([O-])[O-])C(C)(C)C.[Na+].[Na+] | Drug metabolism [23]: Metabolite_Detected; t1/2 [24]: > 0.167 h; t1/2 [25]: 0.35 h; half-life at 50000 µM [26]: 1.95 h

— ChEMBL document CHEMBL4390686, “Design, Synthesis, and Pharmacokinetic Evaluation of Phosphate and Amino Acid Ester Prodrugs for Improving the Oral Bioavailability of the HIV-1 Protease Inhibitor Atazanavir” (J Med Chem, 2019)
